Test results: patent US20210346506A1, “PRODRUG OF ITRACONAZOLE AND USES THEREOF” (priority 2020, published 2021)

Tests used:
[1] = Compound stability test in human blood; type: in vitro ADME; settings: 37° C., 1 μM; for Remaining Percentages (%): human blood; for half-life at 1 μM: in vitro half-life in human blood
Experimental: (§1) One (1) mM test compound working solution was prepared in DMSO. One (1) mM propantheline working solution was prepared in acetonitrile, wherein propantheline was used as positive control in this assay.
(§2) Ten (10) μL of each test compound solution and the control compound solution were respectively added into a 96 deep well plate, and 40 μL of acetonitrile:water (V/V=1:1) was added to each well to dilute the 1 mM test compound solution to 200 μM working solution.
(§3) Mouse blood (male CD-1 mouse blood, Pharmaron, Lot# PH-ADME-Mouse-20180329) or human blood (Pharmaron, Lot# PH-ADME-Human-20180329) of 398 μL was added to each well of an incubation plate, and then the incubation plate was pre-warmed at 37° C. for 15 minutes. After the pre-incubation, 2 μL of 200 μM working solution prepared above was spiked to the pre-warmed 398 μL blood to reach a final concentration of 1 μM. The final concentration of DMSO was 0.1% and the final concentration of acetonitrile was 0.2%. The assay was performed in duplicate.
(§4) The incubation plate was incubated at 37° C. water bath with shaking at 50 rpm, and aliquots of 50 μL were taken from each well of the incubation plate at 0, 10, 30, 60, 90, 120 and 180 minutes.
(§5) The reaction was stopped by the addition of 50 μL of pure water. The plate was vortexed for 30 seconds at 1,000 rpm and then added with 300 μL of cold acetonitrile containing internal standards (100 nM aprozolam, 200 nM caffeine, 100 nM tolbutamide).
(§6) All samples were vortexed for 10 minutes, followed by centrifugation at 14,000 rpm for 15 minutes to precipitate proteins. 100 μL of each supernatant was transferred to a new plate, and diluted with ultrapure water according to the LC-MS signal response and peak shape.
(§7) Samples were analyzed by LC-MS/MS.
(§8) • LC system: ACQUITY UPLC® I-Class • MS analysis: Waters XEVO® TQ-D with an ESI interface • Column temperature: 40° C. • Injection volume: 3 μL • Column: Waters XSelect HSS T3 C18, 2.5 μm, 2.1×50 mm column • Mobile phase: 0.1% formic acid in water (A) and 0.1% formic acid in acetonitrile (B)
(§9) • Ion source: Turbo spray • Ionization model: ESI • Scan type: MRM • Cone gas: 150 L/h • Desolvation gas: 1000 L/h • Desolvation temperature: 500° C. • Capillary voltage: 3.00 KV
(§10) All calculations were carried out using Microsoft Excel. Peak area ratios were determined from extracted ion chromatograms, and percent compounds remaining at each time point were calculated by the following equation:
(§11) Remaining Percentaget min(%)=Peak Area Ratiot min/Peak Area Ratio0 min×100, where Peak Area Ratiot min referred to peak area ratio of control and test compounds at t min; and Peak Area Ratio0 min referred to peak area ratio of control and test compounds at zero time point. The in vitro half-life (in vitro t1/2) was determined from the slope value: In vitro T1/2=−(0.693/k).

[2] = Compound stability test in mouse blood; type: in vitro ADME; settings: 37° C., 1 μM; for half-life at 1 μM: male, CD-1, in vitro half-life in mouse blood; for Remaining Percentages (%): mouse blood
Experimental: as §1, §2, §3, §4, §5, §6, §7, §8, §9, §10, §11

Structure (SMILES) | Remaining Percentages (%) ([1]; 0 min) | Remaining Percentages (%) ([1]; 10 min) | Remaining Percentages (%) ([1]; 30 min) | Remaining Percentages (%) ([1]; 60 min) | Remaining Percentages (%) ([1]; 90 min) | Remaining Percentages (%) ([1]; 120 min) | Remaining Percentages (%) ([1]; 180 min) | half-life at 1 μM [1] | half-life at 1 μM [2] | Remaining Percentages (%) ([2]; 0 min) | Remaining Percentages (%) ([2]; 10 min) | Remaining Percentages (%) ([2]; 30 min) | Remaining Percentages (%) ([2]; 60 min) | Remaining Percentages (%) ([2]; 90 min) | Remaining Percentages (%) ([2]; 120 min) | Remaining Percentages (%) ([2]; 180 min)
CCC(C)n1ncn(-c2ccc(N3CCN(c4ccc(OCC5COC(Cn6c[n+](C)cn6)(c6ccc(Cl)cc6Cl)O5)cc4)CC3)cc2)c1=O.[Cl-] (centres unmarked) [Compound 1] | 100% | 68.5% | 32.6% | 12.3% | 7.80% | 2.02% | 0.36% | 23.1 min | 1.77 min | 100% | 2.01% | 0.00% | 0.00% | 0.00% | 0.00% | 0.00%
CCC(C)n1ncn(-c2ccc(N3CCN(c4ccc(OCC5COC(Cn6c[n+](CC)cn6)(c6ccc(Cl)cc6Cl)O5)cc4)CC3)cc2)c1=O.[Cl-] (centres unmarked) [Compound 2] | 100% | 60.3% | 26.1% | 8.47% | 3.59% | 1.66% | 0.30% | 15.6 min | 11.8 min | 100% | 40.1% | 16.2% | 3.79% | 0.90% | 0.175% | 0.00%
CCC(C)n1ncn(-c2ccc(N3CCN(c4ccc(OCC5COC(Cn6c[n+](COC(=O)C(C)C)cn6)(c6ccc(Cl)cc6Cl)O5)cc4)CC3)cc2)c1=O.[Cl-] (centres unmarked) [Compound 4] | 100% | 61.0% | 30.2% | 8.93% | 4.67% | BLOD | BLOD | 17.7 min | 6.03 min | 100% | 31.5% | 4.04% | BLOD | BLOD | BLOD | BLOD
CCC(C)n1ncn(-c2ccc(N3CCN(c4ccc(OCC5COC(Cn6c[n+](COC(=O)C(C)(C)C)cn6)(c6ccc(Cl)cc6Cl)O5)cc4)CC3)cc2)c1=O.[Cl-] (centres unmarked) [Compound 5] | 100% | 69.4% | 30.4% | 9.76% | 5.50% | 2.08% | BLOD | 18.1 min | 4.84 min | 100% | 23.9% | 1.48% | BLOD | BLOD | BLOD | BLOD
CCCOC(=O)OC[n+]1cnn(CC2(c3ccc(Cl)cc3Cl)OCC(COc3ccc(N4CCN(c5ccc(-n6cnn(C(C)CC)c6=O)cc5)CC4)cc3)O2)c1.[Cl-] (centres unmarked) [Compound 7] | 100% | 25.3% | BLOD | BLOD | BLOD | BLOD | BLOD | 5.07 min | 7.12 min | 100% | 37.3% | BLOD | BLOD | BLOD | BLOD | BLOD
